Tests used:
[1] = Stability of L-dopa during fed-batch fermentation with and without pH-shift; format: physicochemical, Escherichia coli
Method: Cultivations in a fermentor were conducted in a 2.0 L bioreactor (Labfors, Infors; Switzerland) with 10% inoculation; which was cultivated at 33° C. The cultivation started at pH 6.7. The mineral fermentation medium (see composition above) was directly sterilized in the bioreactor together with the calibrated pH- and Oxygen-sensors.
pH was controlled by 17.5% NH4OH (1:2 diluted) and a 5 N KOH solution. A separate glucose feed (500 g·^−1) was started when the OD620nm was higher than 5. At OD620nm 10, which was reached after about 14 hours Isopropyl-beta-D-thiogalactopyranoside (IPTG) was added to a final concentration of 0.1 mM. […]
Biomass (OD620nm) and L-dopa concentrations were determined by HPLC analysis (see example 5 for HPLC conditions) as a function of time (see: Table 1). The L-dopa concentration at 43 hours was related to 10.
A fermentation was performed describes as in example 6 with the following differences:
At OD620nm 5 (reached after 7 hours) IPTG was added.
The L-dopa concentration reached after 32 hours was related to 10.

[2] = Stability of L-dopa in fermentation broth adjusted to different pH, stored at room temperature (HPLC); format: physicochemical; conditions: for L-dopa concentration, fermentation broth at pH 4.5 (sample 4): pH 4.5, room temperature; for L-dopa concentration, fermentation broth at pH 4.5 (sample 4) / L-dopa concentration, fermentation broth at pH 5.5 (sample 3) / L-dopa concentration, fermentation broth at pH 6.5 (sample 2) / L-dopa concentration, fermentation broth at pH 7.5 (sample 1): broth at pH 4.5 related to 10; for L-dopa concentration, fermentation broth at pH 5.5 (sample 3): pH 5.5, room temperature; for L-dopa concentration, fermentation broth at pH 6.5 (sample 2): pH 6.5, room temperature; for L-dopa concentration, fermentation broth at pH 7.5 (sample 1): pH 7.5, room temperature
Method: (§1) To perform the HPLC analysis, the HPLC 1100 system of Aegilent (Waldbronn, Germany) with a Diode Array Detector was used. The compounds were measured at a wavelength of 200 nm. A Nucleosil-120-5-C18 column (250×4 mm) from Macherey-Nagel was used as the solid phase. The column was eluted using a gradient starting with eluent A (10 mM H3PO4) and eluent B (100% acetonitril). Gradient: 0 min 2% B, 25 min up to 90% B, 27 min to 30 min 2% B. The elution rate was set at 1.2 ml/min, the column temperature was set at 40° C.
A sample of the fermentation broth in which L-dopa is present, prepared as described in example 6, which had been adjusted to pH 7.5 (sample 1), pH 6.5 (sample 2), pH 5.5 (sample 3) and pH 4.5 (sample 4) was used. The samples 1, 2, 3 and 4 were stored at room temperature for 600 hours and L-dopa concentrations were determined at several points in time (up to 600 hours). L-dopa concentrations were determined by HPLC analysis as a function of time (see: Table 4) with the […], i.e. fermentation broth at pH 4.5, related to 10.

[3] = Storage stability of L-dopa in fermentation broth, extracted water phase and reextraction medium (reactive extraction, HPLC); format: physicochemical; conditions: for change of L-dopa concentration during storage: room temperature, up to 600 h; for relative L-dopa concentration of untreated fermentation broth (sample A, pH = 7.5): pH 7.5, stored at room temperature; for relative L-dopa concentration of water phase of fermentation broth extracted by kerosene/D2EHPA (sample B, pH acidic): stored at room temperature; for relative L-dopa concentration of re-extracted organic phase by KCl (sample C, pH = 6.3): pH 6.3, stored at room temperature
Method: as §1
A sample of the fermentation broth in which L-dopa is present, prepared as described in example 6, which had been adjusted to pH 7,5 (sample A), was used. 5 ml kerosene containing 10% D2EHPA (pH acidic) was mixed vigorously with the same volume of sample A for 30 seconds on a vortex mixer. After separation of the two phases (about 10 minutes) the water phase containing L-dopa, the extraction medium (sample B) was stored at room temperature. L-dopa dissolved in the organic phase was reextracted by mixing 2 ml of the organic phase with 1 ml of 1 M KCl (pH=6.3) by shaking vigorously for 30s. After separation of the two phases (about 10 minutes), the water phase containing L-dopa, the reextraction medium (sample C) was stored at room temperature. The samples A, B and C were stored at room temperature for 600 hours and L-dopa concentrations were determined at several points in time (up to 600 hours). L-dopa concentrations were determined by HPLC analysis as a function of time (see: Table 3).

## N[C@@H](Cc1ccc(O)c(O)c1)C(=O)O [L-dopa, L-3,4-dihydroxyphenylalanine]
[1]; fermentation at pH 6.7, no pH-shift
  stability of L-dopa in the fermentation: less stable
[1]; fermentation with pH-shift from pH 6.7 to pH 5.8
  stability of L-dopa in the fermentation: stable
[2]; 24 h
  L-dopa concentration, fermentation broth at pH 4.5 (sample 4): 10
  L-dopa concentration, fermentation broth at pH 5.5 (sample 3): 9
  L-dopa concentration, fermentation broth at pH 6.5 (sample 2): 7
  L-dopa concentration, fermentation broth at pH 7.5 (sample 1): 6
[2]; 96 h
  L-dopa concentration, fermentation broth at pH 4.5 (sample 4): 10
  L-dopa concentration, fermentation broth at pH 5.5 (sample 3): 9
  L-dopa concentration, fermentation broth at pH 6.5 (sample 2): 7
  L-dopa concentration, fermentation broth at pH 7.5 (sample 1): 6
[2]; 168 h
  L-dopa concentration, fermentation broth at pH 4.5 (sample 4): 10
  L-dopa concentration, fermentation broth at pH 5.5 (sample 3): 9
  L-dopa concentration, fermentation broth at pH 6.5 (sample 2): 7
  L-dopa concentration, fermentation broth at pH 7.5 (sample 1): 5
[2]; 336 h
  L-dopa concentration, fermentation broth at pH 4.5 (sample 4): 10
  L-dopa concentration, fermentation broth at pH 5.5 (sample 3): 9
  L-dopa concentration, fermentation broth at pH 6.5 (sample 2): 5
  L-dopa concentration, fermentation broth at pH 7.5 (sample 1): 4
[2]; 408 h
  L-dopa concentration, fermentation broth at pH 4.5 (sample 4): 10
  L-dopa concentration, fermentation broth at pH 5.5 (sample 3): 9
  L-dopa concentration, fermentation broth at pH 6.5 (sample 2): 5
  L-dopa concentration, fermentation broth at pH 7.5 (sample 1): 3
[2]; 504 h
  L-dopa concentration, fermentation broth at pH 4.5 (sample 4): 10
  L-dopa concentration, fermentation broth at pH 5.5 (sample 3): 8
  L-dopa concentration, fermentation broth at pH 6.5 (sample 2): 4
  L-dopa concentration, fermentation broth at pH 7.5 (sample 1): 3
[2]; 600 h
  L-dopa concentration, fermentation broth at pH 4.5 (sample 4): 10
  L-dopa concentration, fermentation broth at pH 5.5 (sample 3): 8
  L-dopa concentration, fermentation broth at pH 6.5 (sample 2): 4
  L-dopa concentration, fermentation broth at pH 7.5 (sample 1): 2
[2]; pH 7.5 to 4.5, room temperature, up to 600 h
  effect of pH of the fermentation broth on stability of L-dopa: lower pH values of the fermentation broth increase the stability of L-dopa
[3]; after extraction of the broth with kerosene/D2EHPA (sample B, acidic pH)
  change of L-dopa concentration during storage: decrease of concentration of L-dopa was nearly prevented
[3]; after re-extraction with KCl (sample C, pH 6.3)
  change of L-dopa concentration during storage: no decrease of L-dopa concentration was observed
[3]; fermentation broth without kerosene/D2EHPA extraction (sample A, pH 7.5)
  change of L-dopa concentration during storage: decreases during the storage time
[3]; 24 h
  relative L-dopa concentration of untreated fermentation broth (sample A, pH = 7.5): 0.7
  relative L-dopa concentration of water phase of fermentation broth extracted by kerosene/D2EHPA (sample B, pH acidic): 0.8
  relative L-dopa concentration of re-extracted organic phase by KCl (sample C, pH = 6.3): 0.3
[3]; 96 h
  relative L-dopa concentration of untreated fermentation broth (sample A, pH = 7.5): 0.7
  relative L-dopa concentration of water phase of fermentation broth extracted by kerosene/D2EHPA (sample B, pH acidic): 0.7
  relative L-dopa concentration of re-extracted organic phase by KCl (sample C, pH = 6.3): 0.3
[3]; 168 h
  relative L-dopa concentration of untreated fermentation broth (sample A, pH = 7.5): 0.6
  relative L-dopa concentration of water phase of fermentation broth extracted by kerosene/D2EHPA (sample B, pH acidic): 0.7
  relative L-dopa concentration of re-extracted organic phase by KCl (sample C, pH = 6.3): 0.3
[3]; 336 h
  relative L-dopa concentration of untreated fermentation broth (sample A, pH = 7.5): 0.5
  relative L-dopa concentration of water phase of fermentation broth extracted by kerosene/D2EHPA (sample B, pH acidic): 0.8
  relative L-dopa concentration of re-extracted organic phase by KCl (sample C, pH = 6.3): 0.4
[3]; 408 h
  relative L-dopa concentration of untreated fermentation broth (sample A, pH = 7.5): 0.4
  relative L-dopa concentration of water phase of fermentation broth extracted by kerosene/D2EHPA (sample B, pH acidic): 0.7
  relative L-dopa concentration of re-extracted organic phase by KCl (sample C, pH = 6.3): 0.4
[3]; 504 h
  relative L-dopa concentration of untreated fermentation broth (sample A, pH = 7.5): 0.4
  relative L-dopa concentration of water phase of fermentation broth extracted by kerosene/D2EHPA (sample B, pH acidic): 0.8
  relative L-dopa concentration of re-extracted organic phase by KCl (sample C, pH = 6.3): 0.4
[3]; 600 h
  relative L-dopa concentration of untreated fermentation broth (sample A, pH = 7.5): 0.3
  relative L-dopa concentration of water phase of fermentation broth extracted by kerosene/D2EHPA (sample B, pH acidic): 0.7
  relative L-dopa concentration of re-extracted organic phase by KCl (sample C, pH = 6.3): 0.4
